What was measured:
[1] = biological target: T1, Androgen Receptor (Homo sapiens, UniProt P10275, T878A); assay: androgen receptor radioligand binding inhibition; details: [3H]methyltrienolone binding, LNCaP cells cytosol
T1 construct: (ii) AR (human) LNCaP cells (cytosol); host or cells: LNCaP cells (cytosol)
T1 sequence (P10275 1-920 T878A): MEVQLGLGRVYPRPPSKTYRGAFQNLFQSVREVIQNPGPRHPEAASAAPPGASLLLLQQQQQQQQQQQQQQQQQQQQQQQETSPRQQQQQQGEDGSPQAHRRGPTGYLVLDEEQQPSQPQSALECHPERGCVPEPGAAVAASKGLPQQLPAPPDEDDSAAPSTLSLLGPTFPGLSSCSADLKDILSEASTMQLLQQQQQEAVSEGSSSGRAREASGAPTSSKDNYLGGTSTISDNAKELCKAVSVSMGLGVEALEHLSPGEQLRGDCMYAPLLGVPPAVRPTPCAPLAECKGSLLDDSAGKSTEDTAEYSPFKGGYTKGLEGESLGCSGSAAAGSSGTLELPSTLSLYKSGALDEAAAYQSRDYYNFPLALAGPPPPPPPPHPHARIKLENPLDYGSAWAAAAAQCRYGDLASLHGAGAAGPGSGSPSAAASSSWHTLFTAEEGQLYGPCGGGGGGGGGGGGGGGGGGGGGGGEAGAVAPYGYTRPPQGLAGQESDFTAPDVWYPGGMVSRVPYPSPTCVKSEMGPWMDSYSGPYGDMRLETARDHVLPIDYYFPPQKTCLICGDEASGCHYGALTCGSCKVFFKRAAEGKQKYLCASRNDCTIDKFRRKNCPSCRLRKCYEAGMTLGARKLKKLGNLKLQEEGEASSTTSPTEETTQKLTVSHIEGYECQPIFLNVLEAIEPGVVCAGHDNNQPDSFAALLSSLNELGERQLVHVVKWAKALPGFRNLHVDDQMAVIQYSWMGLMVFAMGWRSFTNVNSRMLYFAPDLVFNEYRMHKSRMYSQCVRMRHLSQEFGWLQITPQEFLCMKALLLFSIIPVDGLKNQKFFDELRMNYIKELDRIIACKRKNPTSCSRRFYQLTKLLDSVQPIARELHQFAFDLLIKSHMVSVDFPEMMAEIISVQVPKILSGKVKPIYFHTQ
Procedure: Four nuclear receptors: glucocorticoid, androgen, LXRα, and LXRβ were assayed. Inhibition of agonist binding to each of the receptors was carried out following a standard protocol by Eurofins, Inc., USA. Compounds were tested at 10 µM. Compound binding was measured by scintillation counting and was calculated as a % inhibition of the binding of a radioactively labeled ligand specific for each target. Percent inhibition of control specific binding was expressed as
100−[(measured specific binding)/(control specific binding)∗100]
where measured specific binding is the amount of radioactive ligand binding obtained in the presence of test compounds.
(iii) LXRα (human) recombinant protein expressed in E. coli; agonist radioligand 20 nM [^3H] […] (iv) LXRβ (human) recombinant protein expressed in E. coli; agonist radioligand 20 nM [^3H]

[2] = compound plasma concentration in Balb/c mice by LC-MS; format: in vivo; details: 50 mg/kg; for plasma level at the end of the experiment with infected mice: Balb/c mice, 6 h after last dose, alone or with rifampicin
Procedure: Animal experimentation was conducted under approval by the ILSL ethical committee (CEUA ILSL 02/19). Balb/c female mice with 8-week-old were inoculated with 5 × 10^3 live M. leprae bacilli, strain Thai-53, in both hind footpads, as previously described for the Shepard’s model ([25]). Eight groups were tested in the experiment: (i) M. leprae control group (n = 5) inoculated with M. leprae and no additional treatment; (ii) vehicle control group (n = 4) inoculated with M. leprae and treatment with vehicle of the drugs; (iii) regular rifampicin treatment, 10 mg/Kg dose; (iv) sub-inhibitory rifampicin, 1 mg/kg dose (n = 5); (v) compound 2 treatment (n = 4), 50 mg/kg dose; (vi) compound 2 with sub-inhibitory rifampicin (n = 5), 50 mg/kg dose of compound 2 and 1 mg/kg dose of rifampicin; (vii) compound 5 treatment (n = 5), 50 mg/kg dose; and (viii) compound 5 with sub-inhibitory rifampicin (n = 5), 50 mg/kg dose of compound 5 and 1 mg/kg dose of rifampicin. One month after inoculation, mice from the control group were euthanized and the hind footpad was collected to assess the establishment of the infection by bacillary enumeration. At that time point, vehicle or drug treatment was started for the remaining groups. All compounds were administrated by gavage, rifampicin was administered weekly, and the compounds were administered daily (excluding weekends) for 1 month (20 doses). Mice were euthanized 6 h after administration of the last dose, and blood was collected in heparin-coated tubes by cardiac puncture for blood enzyme evaluation and compound 5 measurement by LC/MS in the plasma. The infected hind footpads from each group of mice were excised, homogenized and bacilli enumerated in a 100 µL aliquot as previously described ([26]). […]
Uninfected Balb/c female mice (n = 36), approximately 8 weeks old and 20 g, were divided into three groups. […] Concentrations of compound 5 in plasma were determined by LC/MS.
Compound 5 quantification in the plasma was performed on lipid extracts from plasma samples. […]

Row | SMILES | % inhibition observed, Androgen Receptor ([1]; 10 µM) | inhibition at 10 µM ([1]; read-out: % inhibition observed, Androgen Receptor) [%] | plasma level at the end of the experiment with infected mice [2] | plasma levels over 4 weeks, alone vs in combination with rifampicin ([2]; non-infected Balb/c mice, rifampicin 1 mg/kg, weekly time points)
1 | C[C@]12CCC3C(CNC4=CC(=O)CC[C@@]43C)C1CCC2C(=O)NC(c1ccc(F)cc1)c1ccc(F)cc1 (some centres unmarked) [Compound 5] | low binding | 9.1 | detectable levels | no significant differences
2 | CCCN1CC2C3CCC(C(=O)Nc4cc(C(C)(C)C)ccc4C(C)(C)C)[C@@]3(C)CCC2[C@@]2(C)CCC(=O)C=C12 (some centres unmarked) [Compound 2] |  |  | detectable levels | 
